From paper PMC4278708, “A Convenient Method for the Synthesis of (Prop-2-Ynyloxy)Benzene Derivatives via Reaction with Propargyl Bromide, Their Optimization, Scope and Biological Evaluation” (PLoS ONE, 2014)
In brackets after ≈: the same amount, converted by molar mass. Like-named read-outs stand apart in the source and are kept apart here.

What was measured:
[1] = Nitric oxide (NO) scavenging activity (sodium nitropruside / Griess reagent); settings: for Percentage scavenging activity at 50 ug/ml / Percentage scavenging activity at 100 ug/ml: NO; for IC50: NO scavenging
Method: Solutions of known concentration were prepared by dissolving the synthesized compounds in appropriate solvents. A mixture of sample solution (20 µl), 10 mM sodium nitropruside solution (200 µl) and phosphate buffer of 7.4 pH (1780 µl) was taken in a dry test tube and the mixture was incubated at 37°C for 2 hours. 200 µl Griess reagent (0.3% Sulphanilic acid in glacial acetic acid, 0.1% Naphthyl ethylene diamine HCL (NED): Mixed equal volume of both solutions just before use) was added after the incubation period is over. After 20 min keeping the solution at room temperature, its absorbance at 528 nm was measured. Each sample was analyzed in triplicate. Positive control of any known antioxidant and control of all samples were run in parallel. Use of negative control was to calibrate the instrument. Sample blanks were also prepared in case if the samples were coloured. Correction in the absorbance values was made by subtracting the sample blank reading from the sample reading.

urease enzyme = urease enzyme (Canavalia ensiformis, UniProt P07374); test: biochemical; type: biochemical; settings: for inhibition at 50 µg/mL: read-out: Percentage inhibition at 50 ug/mL; for inhibition at 100 µg/mL: read-out: Percentage inhibition at 100 ug/mL
Method: Antiurease activity of the synthesized compounds was determined by using the modified phenol-hypochlorite method. Varying concentrations were used to prepare the urease inhibition curve of Thiourea (a known inhibitor of Urease) in the reaction mixture. Phosphate buffer solution of pH 7 containing 1 unit of enzyme was added about 200 µl in the test tube which was followed by the addition of 230 µl of phosphate buffer and 20 µl of thiourea from a scrupulous stock solution for the particular concentration of thiourea in the reaction mixture respectively. Test sample solutions were added instead of thiourea solution in case of test samples. The reaction mixture were mixed and incubated at 25°C for 5 min. 400 µl of urea stock (20 mM) was added in each test tube. In order to allow the action of urease on urea, all the test tubes were incubated at 40°C.
Phenol hypochlorite reagent (1150 µl) was added after 10 min incubation at 40°C. Test tubes were again incubated at 56°C for 25 min. A blue coloured complex was formed in the reaction mixture. The samples were allowed to cool for 5 min and then their absorbance values were measured at 625 nm and the %age inhibition was calculated. Experiment was repeated three times to get the SD values.

Staphylococcus aureus = test: Antibacterial activity, disc diffusion method; type: cell-based; settings: for inhibition at 40 µg/mL / inhibition at 100 µg/mL / IC50: Staphylococcus aureus; for inhibition at 40 µg/mL: read-out: Staphylococcus aureus 40 ug/ml (percentage inhibition); for inhibition at 100 µg/mL: read-out: Staphylococcus aureus 100 ug/ml (percentage inhibition)
Source text: (§1) Disc diffusion method was adopted to test the antibacterial activity of synthesized compounds 2a-10 against […] different bacterial strains. Ampiciline was used as positive control to check antibacterial activity of synthesized compounds. The bacterial strains employed were: Escherichia coli, Bacillus subtillus, Shigella flexneri, Staphylococcus aureus, Pseudomonas aeroginosa and Salmonella typhi.
(§2) Disc diffusion method was used for the determination of antibacterial activity. synthetic organic compounds were examined to evaluate their antibacterial potential against four different strains of bacteria i.e. Staphlococcus aureus (Gram + ive), Pseudomonas- aeroginosa (Gram−ive) and Escherichia coli (Gram−ive), Bacillus subtilis (Gram + ive), Salmonella typhi (Gram−ive) and Shigella flexneri (−ive). The synthetic organic compounds were dissolved in an appropriate solvent to get the solution of known concentration (5 µg/µl or 10 µg/µl). In order to prepare discs of different potencies known volume of extract/synthetic organic compound solution was applied on the discs, air dried and used. After preparation of the sterilized nutrient agar and nutrient broth medium, the sterilized nutrient agar medium was poured under aseptic conditions into sterile glass petri dishes/plates. A known volume of bacterial growth culture can also be poured on the surface of agar medium solidified in petri dishes. After inoculation petri plates were kept at room temperature for 15–30 minutes so that the poured medium is adsorbed. All the discs, including test sample, +ive and –ve controls were placed onto the inoculated nutrient agar medium solidified in petri dishes with the help of sterile forceps and incubated the petri plates at 37°C±2°C for 16–24 hours. Zone of inhibition was measured in mm using ordinary scale. Experiment was repeated three times to get the SD values.

Bacillus subtillus = test: Antibacterial activity, disc diffusion method; type: cell-based; settings: for IC50 / inhibition at 50 µg/mL / inhibition at 100 µg/mL: Bacillus; for inhibition at 50 µg/mL: read-out: Bacillus subtillus 50 ug/ml (percentage inhibition); for inhibition at 100 µg/mL: read-out: Bacillus subtillus 100 ug/ml (percentage inhibition)
Source text: as §1, §2

[2] = read-out: Staphylococcus aureus IC50 ug/ml
[3] = read-out: Bacillus subtillus IC50 ug/ml

Chain of urease enzyme (P07374 whole entry, looked up): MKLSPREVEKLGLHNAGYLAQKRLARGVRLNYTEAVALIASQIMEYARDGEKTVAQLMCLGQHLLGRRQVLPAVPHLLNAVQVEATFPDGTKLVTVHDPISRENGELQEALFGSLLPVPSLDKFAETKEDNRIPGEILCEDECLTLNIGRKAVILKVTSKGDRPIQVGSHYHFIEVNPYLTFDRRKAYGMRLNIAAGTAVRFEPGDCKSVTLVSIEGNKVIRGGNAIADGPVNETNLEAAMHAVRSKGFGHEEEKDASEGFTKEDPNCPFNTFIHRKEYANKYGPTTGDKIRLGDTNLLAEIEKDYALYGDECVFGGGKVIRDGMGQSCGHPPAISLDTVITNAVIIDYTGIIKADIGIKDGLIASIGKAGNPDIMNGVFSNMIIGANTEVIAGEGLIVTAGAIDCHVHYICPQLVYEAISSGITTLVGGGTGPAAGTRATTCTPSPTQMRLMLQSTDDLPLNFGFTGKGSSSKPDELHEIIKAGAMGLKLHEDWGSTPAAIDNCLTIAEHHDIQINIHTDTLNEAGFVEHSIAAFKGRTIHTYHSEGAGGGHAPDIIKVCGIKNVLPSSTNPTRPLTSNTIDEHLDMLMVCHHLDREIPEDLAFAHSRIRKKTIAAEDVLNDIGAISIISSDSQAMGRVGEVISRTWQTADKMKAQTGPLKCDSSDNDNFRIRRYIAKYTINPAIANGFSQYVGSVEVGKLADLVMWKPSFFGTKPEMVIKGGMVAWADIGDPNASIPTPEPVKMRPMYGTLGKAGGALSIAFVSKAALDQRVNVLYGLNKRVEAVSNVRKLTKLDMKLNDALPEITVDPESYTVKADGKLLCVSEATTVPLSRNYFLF

| Compound | Percentage scavenging activity at 50 ug/ml [1] [%] | Percentage scavenging activity at 100 ug/ml [1] [%] | IC50 (urease enzyme) [µM] | inhibition at 50 µg/mL (urease enzyme) [%] | inhibition at 100 µg/mL (urease enzyme) [%] | inhibition at 40 µg/mL (Staphylococcus aureus) [%] | inhibition at 100 µg/mL (Staphylococcus aureus) [%] | IC50 [1] [µg/mL] | activity against Bacillus subtillus (in words) (Bacillus subtillus) | IC50 (Staphylococcus aureus; [2]) [µg/mL] | inhibition at 50 µg/mL (Bacillus subtillus; 50 ug/ml) [%] | also measured |
| --- | --- | --- | --- | --- | --- | --- | --- | --- | --- | --- | --- | --- |
| C#CCNc1cccc2ccccc12 [Compound 8d, N-(prop-2-ynyl)naphthalen-1-amine] | 7.67±0.13 | 38.38±0.32 | 506 | 43 ± 0.42 | 51.5 ± 0.26 | 5.85 ± 0.8 | 31 ± 0.2 |  |  |  |  | nitric oxide scavenging activity (in words) [1]: did not show any significant results |
| C#CCOc1ccc(F)cc1Br [Compound 2e, 2-bromo-4-fluoro-1-(prop-2-ynyloxy)benzene] | 33.33±0.1 | 77.5±0.11 | 271 | 40 ± 0.5 | 79.59 ± 0.11 | 31.99 ± 0.07 | 58 ± 0.9 | 68.8 (≈ 300 µM) | inactive | 85.1 (≈ 372 µM) |  |  |
| C#CCOc1cccc2ccccc12 [Compound 6a, 1-(prop-2-ynyloxy)naphthalene] | 24.33±0.12 | 63.17±0.19 | 373 | 41.33 ± 0.41 | 65.3 ± 0.18 | -1.85 | 10 ± 0.9 | 83 (≈ 455 µM) |  |  |  | IC50 (Bacillus subtillus; [3]): 92.6 µg/mL (≈ 508 µM); activity against Staphylococcus aureus (in words) (Staphylococcus aureus): inactive |
| CC1(C)S[C@@H]2[C@H](NC(=O)[C@H](N)c3ccccc3)C(=O)N2[C@H]1C(=O)O [Ampicilline, reference compound] |  |  |  |  |  | 29.9 ± 0.59 | 73 ± 0.51 |  |  |  | 9.9 ± 0.51 | IC50 (Bacillus subtillus; read-out: Bacillus subtillus IC50): 81 µg/mL (≈ 232 µM); IC50 (Staphylococcus aureus; read-out: Staphylococcus aureus IC50): 76 µg/mL (≈ 218 µM) |
| O=C1O[C@H]([C@@H](O)CO)C(O)=C1O [Vit.C control, Ascorbic acid, reference compound] | 38.5±0.16 | 84.1±0.12 |  |  |  |  |  | 50.43 (≈ 286 µM) |  |  |  |  |
| NC(N)=S [Thiourea, reference compound] |  |  |  |  |  |  |  |  |  |  |  | IC50 (urease enzyme; urease): 23.3 µg/mL; Percentage inhibition at 20 ug/ml (urease enzyme; urease, 20 ug/ml (positive control)): 47.1±0.31%; Percentage inhibition at 40 ug/ml (urease enzyme; urease, 40 ug/ml (positive control)): 65±0.01% |
| C#CCOc1ccc(C)cc1Br [Compound 2d, 2-bromo-4-methyl-1-(prop-2-ynyloxy)benzene] | 31.33±0.10 | 69.95±0.15 | 298 | 30.3 ± 0.6 | 85.89 ± 0.07 | 27.7 ± 0.35 | 52 ± 0.607 | 74.1 (≈ 329 µM) | potent antibacterial | 95.9 (≈ 426 µM) | 41.5 ± 0.3 | IC50 (Bacillus subtillus; [3]): 79.9 µg/mL (≈ 355 µM) |
| N-(prop-2-ynyl)-4-(prop-2-ynyloxy)aniline [Compound 10] | 30±0.10 | 65.5±0.18 |  |  |  |  |  | 78.1 | batter activity |  |  | IC50 (urease enzyme; urease): 89.6 µg/mL; Percentage inhibition at 50 ug/mL (urease enzyme; urease): 25±0.45%; Percentage inhibition at 100 ug/mL (urease enzyme; urease): 56.5±0.234%; Bacillus subtillus IC50 (Bacillus subtillus): 98.5 µg/mL; Bacillus subtillus 50 ug/ml (percentage inhibition) (Bacillus subtillus; 50 ug/ml): 6.13±0.35%; Staphylococcus aureus IC50 (Staphylococcus aureus): 96.3 µg/mL; activity against Staphylococcus aureus (in words) (Staphylococcus aureus): moderate activity; Staphylococcus aureus 40 ug/ml (percentage inhibition) (Staphylococcus aureus): 24.4±0.11%; Staphylococcus aureus 100 ug/ml (percentage inhibition) (Staphylococcus aureus): 52±0.1% |
| C#CCOc1ccc(Cl)cc1Br [Compound 2b, 2-bromo-4-chloro-1-(prop-2-ynyloxy)benzene] | 39.67±0.09 | 68.44±0.16 | 264 | 31.5 ± 0.22 | 81.07 ± 0.1 | 31.47 ± 0.19 | 56 ± 0.07 | 67.9 (≈ 277 µM) | inactive | 87.7 (≈ 357 µM) | 40.37 ± 0.35 | inhibition at 100 µg/mL (Bacillus subtillus; 100 ug/ml): 39.3 ± 0.36% |
| 2-bromo-4-methyl-N-(prop-2-ynyl)aniline [Compound 8b] | 26.33±0.11 | 57.98±0.21 |  |  |  |  |  | 87.5 |  |  |  | IC50 (urease enzyme; urease): 98.2 µg/mL; Percentage inhibition at 50 ug/mL (urease enzyme; urease): 27±0.45%; Percentage inhibition at 100 ug/mL (urease enzyme; urease): 50.83±0.265%; Bacillus subtillus 100 ug/ml (percentage inhibition) (Bacillus subtillus; 100 ug/ml): 43.8±0.35%; Staphylococcus aureus 40 ug/ml (percentage inhibition) (Staphylococcus aureus): 13.39±0.5%; Staphylococcus aureus 100 ug/ml (percentage inhibition) (Staphylococcus aureus): 36±0.8% |
| C#CCOc1ccc(C(C)(C)c2ccc(OCC#C)cc2)cc1 [Compound 4a, 4,4′-(propane-2,2-diyl)bis((prop-2-ynyloxy)benzene)] | 40±0.09 | 74.53±0.13 | 205 | 37 ± 0.34 | 89.42 ± 0.05 | 29.1 ± 0.6 | 50 ± 0.2 | 64.4 (≈ 212 µM) | inactive | 97.7 (≈ 321 µM) |  | inhibition at 100 µg/mL (Bacillus subtillus; 100 ug/ml): 33.9 ± 0.45%; activity against Staphylococcus aureus (in words) (Staphylococcus aureus): moderate activity |
| C#CCOc1ccc2ccccc2c1 [Compound 6b, 2-(prop-2-ynyloxy)naphthalene] | 33.33±0.1 | 65.19±0.18 |  | 32 ± 0.38 | 41.9 ± 0.313 | 21.4 ± 0.4 | 51 ± 0.3 | 76.16 (≈ 418 µM) |  | 98.3 (≈ 539 µM) | 39.06 ± 0.05 | urease inhibition activity (in words) (urease enzyme; 50 and 100 µg/ml tested): did not show any satisfactory results; inhibition at 100 µg/mL (Bacillus subtillus; 100 ug/ml): 57.8 ± 0.26%; IC50 (Bacillus subtillus; [3]): 79.2 µg/mL (≈ 435 µM) |
